For orientation: IC50 means the concentration that inhibits the measured activity by half. The EC50 is the concentration giving half of the maximal effect.

Three compounds from ChEMBL document CHEMBL1201862, “PubChem BioAssay data set” (2004) can be followed below.

In assay [1] the target is T1, Delta-type opioid receptor (Homo sapiens, UniProt P41143). Kind of assay: HTS Image-Based Screen for Antagonists of the DOR Receptor. [Related pubchem assays (depositor defined):AID1777, AID1785, AID1786, AID2133]. The class given is functional.
For the next assay, the target named is Mu-type opioid receptor (Homo sapiens, UniProt P35372). In words: HTS Image-Based Screen for Agonists of the MOR Receptor. [Related pubchem assays (depositor defined):AID1777, AID1785, AID1786, AID2133]. The class given is functional.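 Note: imaging of beta-arrestin GFP recruitment into spots after receptor activation.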
Assay [2] deals with T1, Delta-type opioid receptor. Kind of assay: HTS Image-Based Screen for Agonists of the DOR Receptor. [Related pubchem assays (depositor defined):AID1777, AID1786, AID2133]. The class given is functional.
The target of assay [3] is T2, Kappa-type opioid receptor (Homo sapiens, UniProt P41145). The class given is functional.
Another assay concerns the target Beta-galactosidase (Escherichia coli, UniProt Q8VNN2). The class given is functional.
Assay [4] has as its target T2, Kappa-type opioid receptor. The class given is functional. This is another data set of the same source.
The target in assay [5] is T3, Short transient receptor potential channel 4 (Mus musculus, UniProt Q9QUQ5).
T3 sequence (Q9QUQ5 whole entry): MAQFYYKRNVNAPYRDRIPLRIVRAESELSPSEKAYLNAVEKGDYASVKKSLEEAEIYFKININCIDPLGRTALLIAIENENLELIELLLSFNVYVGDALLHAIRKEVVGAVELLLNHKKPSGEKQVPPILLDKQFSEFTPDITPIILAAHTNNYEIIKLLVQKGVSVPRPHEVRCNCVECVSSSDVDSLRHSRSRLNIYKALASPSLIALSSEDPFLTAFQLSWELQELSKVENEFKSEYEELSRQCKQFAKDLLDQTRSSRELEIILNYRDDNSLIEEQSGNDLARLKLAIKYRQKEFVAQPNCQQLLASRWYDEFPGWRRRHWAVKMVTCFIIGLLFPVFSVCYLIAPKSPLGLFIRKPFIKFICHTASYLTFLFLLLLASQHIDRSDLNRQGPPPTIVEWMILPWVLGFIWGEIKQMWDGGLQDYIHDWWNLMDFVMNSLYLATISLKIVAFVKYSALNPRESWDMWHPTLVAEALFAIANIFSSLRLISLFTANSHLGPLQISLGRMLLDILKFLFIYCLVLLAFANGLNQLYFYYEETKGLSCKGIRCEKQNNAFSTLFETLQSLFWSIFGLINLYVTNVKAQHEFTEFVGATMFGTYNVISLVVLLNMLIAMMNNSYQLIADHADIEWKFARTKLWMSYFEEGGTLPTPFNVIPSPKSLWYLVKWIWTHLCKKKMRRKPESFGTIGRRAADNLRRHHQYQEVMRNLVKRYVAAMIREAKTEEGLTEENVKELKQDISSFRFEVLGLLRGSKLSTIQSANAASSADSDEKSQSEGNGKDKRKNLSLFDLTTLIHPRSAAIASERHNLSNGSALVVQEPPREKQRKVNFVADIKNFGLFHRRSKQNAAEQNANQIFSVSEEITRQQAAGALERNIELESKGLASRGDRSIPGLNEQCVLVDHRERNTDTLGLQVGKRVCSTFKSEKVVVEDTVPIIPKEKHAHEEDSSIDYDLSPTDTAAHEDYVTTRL
In words: mouse TRPC4 channel inhibitors, dose response, cell-based, HEK293 TRPC4/mu-opioid, Fluo-4 calcium (AID 434942).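 Note: potency of inhibitors blocking the TRPC4 calcium response.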 The class given is functional.

The target of another assay is T4, Protein skinhead-1 (Caenorhabditis elegans, UniProt P34707).
T4 sequence (P34707 whole entry): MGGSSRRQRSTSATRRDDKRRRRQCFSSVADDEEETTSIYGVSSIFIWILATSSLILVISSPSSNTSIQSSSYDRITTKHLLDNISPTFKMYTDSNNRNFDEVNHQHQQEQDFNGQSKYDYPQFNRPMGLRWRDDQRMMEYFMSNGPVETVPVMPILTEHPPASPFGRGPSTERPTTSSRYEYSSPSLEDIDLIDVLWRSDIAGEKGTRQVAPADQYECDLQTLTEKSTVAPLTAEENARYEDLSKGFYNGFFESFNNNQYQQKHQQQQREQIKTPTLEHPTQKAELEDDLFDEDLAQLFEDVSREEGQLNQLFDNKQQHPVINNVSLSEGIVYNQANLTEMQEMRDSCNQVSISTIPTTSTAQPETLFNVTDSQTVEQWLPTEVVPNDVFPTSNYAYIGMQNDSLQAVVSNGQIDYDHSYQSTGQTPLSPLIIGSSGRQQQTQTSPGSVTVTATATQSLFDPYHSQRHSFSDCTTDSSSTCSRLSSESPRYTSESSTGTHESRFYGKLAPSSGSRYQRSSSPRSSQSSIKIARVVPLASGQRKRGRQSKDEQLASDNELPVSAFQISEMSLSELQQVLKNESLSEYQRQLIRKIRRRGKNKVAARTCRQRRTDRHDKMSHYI
The class given is functional.

Assay [6] concerns the target T5, Tyrosine-protein phosphatase non-receptor type 7 (Homo sapiens, UniProt P35236).
T5 sequence (P35236 whole entry): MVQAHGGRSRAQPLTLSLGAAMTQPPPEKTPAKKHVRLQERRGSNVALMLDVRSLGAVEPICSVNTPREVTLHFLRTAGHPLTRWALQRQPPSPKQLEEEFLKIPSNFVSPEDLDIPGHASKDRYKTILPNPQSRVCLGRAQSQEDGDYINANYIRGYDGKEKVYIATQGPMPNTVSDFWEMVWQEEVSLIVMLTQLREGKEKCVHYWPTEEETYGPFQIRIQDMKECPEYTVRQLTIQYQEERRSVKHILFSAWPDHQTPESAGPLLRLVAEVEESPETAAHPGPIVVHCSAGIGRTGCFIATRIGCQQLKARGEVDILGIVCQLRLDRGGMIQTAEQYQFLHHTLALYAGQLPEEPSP
The class given is functional.

In assay [7] the target is T6, Tyrosine-protein phosphatase non-receptor type 22 (Homo sapiens, UniProt Q9Y2R2).
T6 sequence (Q9Y2R2 whole entry): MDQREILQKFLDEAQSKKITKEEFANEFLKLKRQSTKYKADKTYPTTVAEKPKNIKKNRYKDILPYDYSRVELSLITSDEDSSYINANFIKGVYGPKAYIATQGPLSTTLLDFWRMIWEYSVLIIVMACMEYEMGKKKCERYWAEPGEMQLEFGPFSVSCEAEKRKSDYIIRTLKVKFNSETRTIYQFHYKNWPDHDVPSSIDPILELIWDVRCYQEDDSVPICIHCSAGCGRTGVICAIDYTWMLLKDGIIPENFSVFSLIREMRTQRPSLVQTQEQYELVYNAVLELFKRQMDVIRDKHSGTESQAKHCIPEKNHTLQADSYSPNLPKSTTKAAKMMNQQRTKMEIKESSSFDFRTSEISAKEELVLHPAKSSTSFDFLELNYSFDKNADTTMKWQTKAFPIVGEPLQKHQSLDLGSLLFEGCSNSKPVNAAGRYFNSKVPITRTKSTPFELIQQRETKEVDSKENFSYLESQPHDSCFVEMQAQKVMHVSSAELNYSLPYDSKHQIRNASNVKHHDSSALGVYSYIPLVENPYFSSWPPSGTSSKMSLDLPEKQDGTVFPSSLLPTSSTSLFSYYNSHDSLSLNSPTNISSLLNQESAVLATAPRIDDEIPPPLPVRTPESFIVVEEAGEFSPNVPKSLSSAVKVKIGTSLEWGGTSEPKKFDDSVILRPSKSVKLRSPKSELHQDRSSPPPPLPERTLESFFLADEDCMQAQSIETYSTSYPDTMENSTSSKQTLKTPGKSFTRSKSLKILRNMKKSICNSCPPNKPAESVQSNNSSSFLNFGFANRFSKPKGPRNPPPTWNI
The class given is functional.

Assay [8] concerns the target T6, Tyrosine-protein phosphatase non-receptor type 22. The class given is functional. The source holds these as a separate data set.
Assay [9] in a line: NIH-3T3 fibroblast cytotoxicity, dose response, cytotoxicity control, cell-based, fluorescence, Alamar Blue, secondary assay (AID 2327).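 Note: NIH-3T3 mouse fibroblasts cultured with fluconazole at 8 µg/mL.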 The class given is functional.
Assay [10] can be described thus: Luminescence Cell-Based Dose Confirmation HTS to Identify Activators of 5'UTR Stem-Loop Driven Alpha-Synuclein mRNA Translation in H4 Neuroglioblastoma Cells. [Related pubchem assays: 1829 (Project Summary), 1814 (Primary HTS)]. The class given is functional.
Assay [11] is described as follows: Luminescence Cell-Based Dose Response HTS to Identify Activators of Luciferase Translation or Activity in H4 […] Cells. [Related pubchem assays: 1829 (Project Summary), 1814 (Primary HTS)]. The class given is functional.
The test system of assay [12] is Streptococcus sp. 'group A'. In words: growth inhibition of control SK(-) GAS strain, dose response, counter-screen for streptokinase expression inhibitor project, luminescence, kanamycin, BacTiterGlo, confirmation (AID 1900). The class given is functional, organism-based. A general note: A counterscreen serves to expose hits that act by an unwanted route or on another target.

The subject of another assay is H4. In words: Luminescence Cell-Based Dose Response HTS to Identify Activators of 5'UTR Stem-Loop Driven Prion Protein mRNA Translation in H4 Neuroglioblastoma Cells. [Related pubchem assays: 1829 (Project Summary), 1814 (Primary HTS)]. The class given is functional. To be noted: Homo sapiens.
In a further assay the target is T7, Streptokinase A (Streptococcus pyogenes serotype M1, UniProt P10520).
T7 sequence (P10520 whole entry): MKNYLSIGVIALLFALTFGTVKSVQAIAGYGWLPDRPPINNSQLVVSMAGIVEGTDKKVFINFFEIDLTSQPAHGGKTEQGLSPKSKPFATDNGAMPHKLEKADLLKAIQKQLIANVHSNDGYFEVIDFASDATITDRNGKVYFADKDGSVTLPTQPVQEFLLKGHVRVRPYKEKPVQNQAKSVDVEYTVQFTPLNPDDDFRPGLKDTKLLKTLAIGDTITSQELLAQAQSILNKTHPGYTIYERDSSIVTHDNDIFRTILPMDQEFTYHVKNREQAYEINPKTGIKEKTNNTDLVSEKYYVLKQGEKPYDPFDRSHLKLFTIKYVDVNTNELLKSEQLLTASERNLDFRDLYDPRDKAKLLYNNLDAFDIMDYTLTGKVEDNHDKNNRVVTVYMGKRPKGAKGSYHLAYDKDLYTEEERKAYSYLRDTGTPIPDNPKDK
In words: S. pyogenes streptokinase expression inhibitors, potency, dose response, plasminogen activation absorbance, OD405 (AID 1914).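 Note: secreted streptokinase activity via plasminogen activation per viability signal from cell pellet.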 The class given is functional, Streptococcus pyogenes M1 GAS.

Assay [13] in a line: C. albicans growth with fluconazole, confirmation, fluorescence, retest (AID 2467). The class given is functional, cell-based.
Assay [14] deals with T8, Calpain-2 catalytic subunit (Sus scrofa, UniProt P43367).
T8 sequence (P43367 whole entry): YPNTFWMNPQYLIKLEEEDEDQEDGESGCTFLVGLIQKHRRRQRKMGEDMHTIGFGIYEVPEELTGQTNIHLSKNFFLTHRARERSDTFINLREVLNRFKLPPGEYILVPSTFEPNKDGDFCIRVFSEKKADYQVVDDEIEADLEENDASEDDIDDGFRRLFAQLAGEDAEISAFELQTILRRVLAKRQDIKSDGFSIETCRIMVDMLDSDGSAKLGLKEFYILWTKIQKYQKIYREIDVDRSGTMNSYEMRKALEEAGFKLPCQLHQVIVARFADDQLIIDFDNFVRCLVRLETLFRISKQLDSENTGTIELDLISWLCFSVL
Kind of assay: pig calpain II inhibitor potency, dose response, biochemical, fluorogenic peptide substrate (AID 1420). The class given is functional.

The target of assay [15] is T9, Dual specificity protein phosphatase 6 (Rattus norvegicus, UniProt Q64346).
T9 sequence (Q64346 whole entry): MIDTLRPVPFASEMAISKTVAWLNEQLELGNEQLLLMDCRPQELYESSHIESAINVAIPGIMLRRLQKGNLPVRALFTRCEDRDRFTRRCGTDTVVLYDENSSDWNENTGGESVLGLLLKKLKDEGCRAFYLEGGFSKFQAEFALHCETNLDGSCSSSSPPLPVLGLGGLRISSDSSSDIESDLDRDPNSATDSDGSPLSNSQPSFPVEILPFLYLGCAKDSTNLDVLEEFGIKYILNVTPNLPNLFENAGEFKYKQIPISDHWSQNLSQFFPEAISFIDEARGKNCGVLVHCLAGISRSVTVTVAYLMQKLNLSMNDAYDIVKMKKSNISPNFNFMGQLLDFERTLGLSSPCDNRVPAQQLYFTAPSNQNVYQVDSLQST
In words: MKP-3 phosphatase inhibitors, primary screen, biochemical, rat enzyme, in vitro (AID 425).

In another assay the test system is Streptococcus. Kind of assay: Group A Streptococcus viability loss, dose response, counter-screen for streptokinase expression inhibitor project, luminescence, BacTiterGlo (AID 1915).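 Note: potency for reduction of bacterial viability or growth.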 The class given is functional, organism-based.
Assay [16] concerns the target Mitogen-activated protein kinase 10 (Homo sapiens, UniProt P53779). Kind of assay: Dose response biochemical screening assay for inhibitors of c-Jun N-Terminal Kinase 3 (JNK3). [Related pubchem assays: 746 ].

The structures appear in SMILES notation. Calls of active or inactive are those of the source. Bounds are passed on as bounds.

T2 sequence (P41145 whole entry): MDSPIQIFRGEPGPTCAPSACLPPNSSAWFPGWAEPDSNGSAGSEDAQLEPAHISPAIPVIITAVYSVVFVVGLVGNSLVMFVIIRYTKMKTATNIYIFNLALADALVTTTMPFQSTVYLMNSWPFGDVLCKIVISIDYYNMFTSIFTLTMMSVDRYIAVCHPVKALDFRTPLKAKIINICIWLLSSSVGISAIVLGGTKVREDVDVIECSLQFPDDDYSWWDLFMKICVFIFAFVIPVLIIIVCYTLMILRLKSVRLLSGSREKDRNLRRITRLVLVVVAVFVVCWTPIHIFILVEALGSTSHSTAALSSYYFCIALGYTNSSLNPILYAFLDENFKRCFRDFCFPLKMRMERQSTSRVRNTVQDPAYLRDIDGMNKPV
T1 sequence (P41143 whole entry): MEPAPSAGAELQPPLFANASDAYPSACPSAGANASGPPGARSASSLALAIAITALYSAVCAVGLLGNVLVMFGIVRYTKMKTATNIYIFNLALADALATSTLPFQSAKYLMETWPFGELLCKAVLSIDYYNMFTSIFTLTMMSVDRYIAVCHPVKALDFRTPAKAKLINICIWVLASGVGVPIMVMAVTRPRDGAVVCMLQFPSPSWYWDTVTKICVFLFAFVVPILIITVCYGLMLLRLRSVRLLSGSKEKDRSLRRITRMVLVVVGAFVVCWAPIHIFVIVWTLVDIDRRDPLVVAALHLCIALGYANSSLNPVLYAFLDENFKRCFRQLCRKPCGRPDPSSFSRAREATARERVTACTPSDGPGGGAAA
Mu-type opioid receptor, sequence (P35372 whole entry): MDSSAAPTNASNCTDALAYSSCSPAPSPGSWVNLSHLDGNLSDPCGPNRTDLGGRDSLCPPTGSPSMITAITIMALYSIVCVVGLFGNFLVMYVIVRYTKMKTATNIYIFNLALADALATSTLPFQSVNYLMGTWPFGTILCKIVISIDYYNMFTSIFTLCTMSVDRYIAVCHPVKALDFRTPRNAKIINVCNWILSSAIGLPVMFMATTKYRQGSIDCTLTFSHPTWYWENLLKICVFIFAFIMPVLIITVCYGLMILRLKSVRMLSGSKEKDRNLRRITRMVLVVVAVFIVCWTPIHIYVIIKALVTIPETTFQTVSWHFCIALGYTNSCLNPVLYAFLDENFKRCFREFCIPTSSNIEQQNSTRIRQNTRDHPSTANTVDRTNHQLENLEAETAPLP
Mitogen-activated protein kinase 10, sequence (P53779 whole entry): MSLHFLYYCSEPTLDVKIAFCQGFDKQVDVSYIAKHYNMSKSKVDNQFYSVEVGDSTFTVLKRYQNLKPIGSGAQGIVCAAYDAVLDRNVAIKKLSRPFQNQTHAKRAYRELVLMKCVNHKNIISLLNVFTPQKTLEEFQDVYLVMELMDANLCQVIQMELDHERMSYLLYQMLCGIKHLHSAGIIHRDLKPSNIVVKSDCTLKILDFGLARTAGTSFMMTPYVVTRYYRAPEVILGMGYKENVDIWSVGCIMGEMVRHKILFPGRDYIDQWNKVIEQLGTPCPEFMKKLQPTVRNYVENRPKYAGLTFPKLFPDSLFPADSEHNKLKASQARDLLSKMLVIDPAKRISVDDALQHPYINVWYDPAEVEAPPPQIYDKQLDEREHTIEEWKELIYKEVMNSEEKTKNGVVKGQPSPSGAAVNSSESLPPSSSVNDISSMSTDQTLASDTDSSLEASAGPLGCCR
Beta-galactosidase, sequence (Q8VNN2 whole entry): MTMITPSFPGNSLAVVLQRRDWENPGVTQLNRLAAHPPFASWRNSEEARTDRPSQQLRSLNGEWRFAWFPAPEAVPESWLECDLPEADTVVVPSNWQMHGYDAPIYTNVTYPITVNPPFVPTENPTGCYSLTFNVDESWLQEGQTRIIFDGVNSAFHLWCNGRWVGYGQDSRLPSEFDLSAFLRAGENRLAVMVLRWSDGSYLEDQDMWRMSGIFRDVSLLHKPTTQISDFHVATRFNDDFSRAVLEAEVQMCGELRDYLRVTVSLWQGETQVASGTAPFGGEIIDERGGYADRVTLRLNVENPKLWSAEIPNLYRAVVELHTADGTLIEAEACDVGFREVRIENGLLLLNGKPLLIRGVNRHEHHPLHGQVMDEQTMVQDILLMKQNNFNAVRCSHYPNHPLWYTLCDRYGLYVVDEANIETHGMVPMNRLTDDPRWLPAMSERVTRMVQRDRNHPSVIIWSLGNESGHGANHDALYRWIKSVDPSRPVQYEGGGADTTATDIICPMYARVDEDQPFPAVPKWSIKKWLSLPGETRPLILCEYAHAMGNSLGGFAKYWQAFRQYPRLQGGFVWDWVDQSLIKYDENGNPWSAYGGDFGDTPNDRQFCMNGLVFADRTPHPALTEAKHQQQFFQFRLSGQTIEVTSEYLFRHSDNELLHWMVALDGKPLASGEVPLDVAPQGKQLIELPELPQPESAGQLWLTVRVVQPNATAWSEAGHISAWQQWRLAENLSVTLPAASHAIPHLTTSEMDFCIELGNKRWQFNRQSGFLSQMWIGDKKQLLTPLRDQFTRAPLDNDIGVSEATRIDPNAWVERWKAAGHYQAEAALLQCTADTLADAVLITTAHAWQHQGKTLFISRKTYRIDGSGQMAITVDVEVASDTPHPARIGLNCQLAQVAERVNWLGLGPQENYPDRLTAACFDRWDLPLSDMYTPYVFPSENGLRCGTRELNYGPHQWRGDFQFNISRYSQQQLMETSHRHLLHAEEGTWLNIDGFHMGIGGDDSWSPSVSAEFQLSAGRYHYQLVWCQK

In the case of `CCOc1cc(CNC2CCCC2)cc(Cl)c1OCc1ccccc1`, the IC50 in assay [1] was > 32 µM (inactive); in [3], 7.88 µM (active); in [4], 2.57 µM; at Protein skinhead-1, < 3.13 µM (active). For the same compound, the EC50 was > 32 µM (inactive) at Mu-type opioid receptor, > 32 µM (inactive) in [2], > 31.5 µM (inactive) at Beta-galactosidase and 4.22 µM (active) in assay [5].

On to `CC(C)Cc1nc(S(=O)(=O)c2ccc(Cl)cc2)c(N2CCOCC2)o1`, for which the IC50 in [6], in [7] and in assay [8] was > 79.4 µM (inactive) in each case.

Take `CCn1nc(-c2ccccc2)nc2c(=O)n(C)c(=O)nc1-2`: the EC50 in assay [9] was 1.8 µM (inconclusive); in assay [10], > 120 µM (not active); in assay [11], > 30 µM (not active); in assay [12], 2.54 µM (active); with H4, > 120 µM (not active); at Streptokinase A, > 150 µM (not active). Also, the values for the EC50 (in assay [13]; with Streptococcus) were 0.442 µM (active) and 9.43 µM (active), respectively. Moreover, the IC50 in [6] was 8.91 µM (active); in assay [14], 6.11 µM (not active); in assay [15], 0.239 µM (active); in assay [16], 36.3 µM (not active); in assay [7] it was 13.2 µM (active); in assay [8], 10.4 µM (active).
